“Also recorded” adds a separate entry of the source. Like-named read-outs stand apart in the source and are kept apart here.
How the values were obtained:
PSAM^4-GlyR [1] = system: PSAM^4-GlyR; design: method as in PMID 30872534; settings: area CA1 of mouse hippocampal neurons, acting on PSAM^4-GlyR; cited from earlier work
PSAM^4-GlyR [2] = system: PSAM^4-GlyR; design: method as in PMID 30872534; settings: PSAM^4-GlyR transduced mouse; cited from earlier work
PSAM^4-GlyR [3] = target: T1, PSAM^4-GlyR (Homo sapiens, UniProt P23415+P36544, L131G/Q139L/Y217F); design: expressed in transfected cells; method as in PMID 30872534, PMID 24556591, PMID 36279419; settings: read-out: PSAM^4-GlyR (Ki); in vitro binding assay, literature; cited from earlier work
PSAM^4-GlyR [4] = target: T1, PSAM^4-GlyR; experiment: Competitive binding assay with [^3H]ASEM on membranes of HEK-293 cells transduced with PSAM^4-GlyR; design: expressed in transfected cells; host or cells: HEK-293 (membrane fraction)
Protocol: HEK-293 cells were transduced with plasmids (5 μg per dish) of encoding PSAM^4-GlyR (in pcDNA3.1) or a control vector (GFP) and harvested 48 h after transduction. Cells were suspended in Tris–HCl buffer (50 mM, pH 7.4) supplemented with a protease inhibitor cocktail (1:100, Sigma-Aldrich; St Louis, MO). HEK-293 cells were disrupted with a Polytron homogenizer (Kinematica; Basel, Switzerland). Homogenates were centrifuged at 48,000g (50 min, 4 °C) and washed twice in the same conditions to isolate the membrane fraction. Protein was quantified by the bicinchoninic acid method (Pierce, ThermoFisher Scientific, MA). […] In all cases, free and membrane-bound radioligand were separated by rapid filtration of 500-μL aliquots in a 96-well plate harvester (Brandel; Gaithersburg, MD) and washed with ice-cold Tris–HCl buffer (2 mL). Microscint-20 scintillation liquid (65 μL per well, PerkinElmer; Boston, MA) was added to the filter plates. Plates were incubated overnight at room temperature and radioactivity counts were determined in a MicroBeta2 plate counter (PerkinElmer) with an efficiency of 41%. One-site competition curves were fitted using Prism 7 (GraphPad Software; La Jolla, CA). Ki values were calculated using the Cheng-Prusoff equation.

α7-nAChR = system: α7-nAChR; design: method as in PMID 30872534, PMID 24556591; settings: cited from earlier work; for Ki: in vitro binding assay, literature
P-gp = settings: cited from earlier work
[5] = Measurement of apparent pKa by radiotracer partition; type: physicochemical; settings: cyclohexane / sodium phosphate buffer partition; cyclohexane / phosphate buffers pH 3.0-10.5, n = 3
Protocol: The method was similar to that followed previously for other radiotracers. Sodium phosphate buffers (0.15 M), with pH values of 3.0, 3.5, 4.0, 4.5, 5.0, 5.5, 6.0, 6.5, 7.0, 7.4, 8.0, 8.5, 9.0, 9.5, 10.0, and 10.5, were prepared from 0.15 M NaH2PO4 and 0.1 M Na2HPO4 and distributed (1 mL per tube) as the aqueous phase. [^11C]uPSEM, formulated in ethanol (20 µL, 2.4 ± 0.3 MBq, n = 48), was added to each tube. Triple sets of such tubes were prepared simultaneously. Cyclohexane (1.0 mL) was added to each of the tubes containing the buffer and the [^11C]uPSEM and then vigorously vortexed for 1 min. The tubes were then centrifuged for one minute. The two phases in each tube were separated, sampled (50 µL aqueous, 200 µL organic) and counted in a γ-counter. Distribution coefficients at each pH were calculated by dividing the counts detected in the organic phase by the total activity present in both phases. These distribution coefficients were plotted versus pH and nonlinear regression analysis applied with GraphPad Prism version 4.03 for windows (GraphPad Software; San Diego, CA) using “One site competition” curve-fitting. […] The radiochemical purity of the [^11C]uPSEM preparation was 98.8% as determined by radio-HPLC on an X-Terra […] column (10 µm, 7.8 × 300 mm; Waters Corp.) and a mobile phase of MeOH:H2O:Et3N (55:45:0.1, by vol) at 5.0 mL/min.

α4β2 nAChR = target: α4β2 nAChR; design: method as in PMID 30872534, PMID 24556591; settings: in vitro binding assay, literature; cited from earlier work
PSAM^4-GlyR [6] = system: PSAM^4-GlyR; design: method as in PMID 30872534; settings: rhesus monkey, globus pallidus internal region (GPi), PSAM^4-GlyR activated by the ligand; cited from earlier work

T1 sequence (P36544+P23415 fused P36544:L131G/P36544:Q139L/P36544:Y217F): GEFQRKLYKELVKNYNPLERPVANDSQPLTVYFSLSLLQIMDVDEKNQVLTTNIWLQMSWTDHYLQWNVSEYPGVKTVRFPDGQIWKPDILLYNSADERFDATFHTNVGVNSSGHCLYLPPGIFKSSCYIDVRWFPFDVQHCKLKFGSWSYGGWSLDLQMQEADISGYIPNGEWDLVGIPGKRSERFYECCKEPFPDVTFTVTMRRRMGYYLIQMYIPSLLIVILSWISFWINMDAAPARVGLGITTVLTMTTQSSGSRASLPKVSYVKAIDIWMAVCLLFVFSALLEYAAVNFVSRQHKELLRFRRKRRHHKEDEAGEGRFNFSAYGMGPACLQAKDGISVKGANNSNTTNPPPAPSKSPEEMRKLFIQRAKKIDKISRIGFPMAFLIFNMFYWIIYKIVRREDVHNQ

In the case of Cn1c(=O)cnc2cc3c(cc21)C1CNCC3C1 (centres unmarked) [uPSEM792, 1-Methyl-1,6,7,8,9,10-hexahydro-2H-6,10-methanoazepino[4,5-g]quinoxalin-2-one], the neuronal silencing (PSAM^4-GlyR [1]) is given as “Neuronal silencing has been shown”, the “blocking of [^18F]ASEM binding in brain” value (PSAM^4-GlyR [2]) is given as “able to block [^18F]ASEM binding” and the Ki (PSAM^4-GlyR [3]) is given as 0.7 nM. For the same compound, the Ki (PSAM^4-GlyR [4]) was 2.62 nM, the “affinity to α7-nAChRs (in words)” value (α7-nAChR) was “low affinity” and the Ki (α7-nAChR) was 8 µM. The “P-gp substrate in vitro” value (P-gp) was “not a P-gp substrate in vitro; also recorded: not to be a P-gp substrate” and the pKa [5] was 9.92 ± 0.05.

In the case of O=S1(=O)c2cc(N3CCN4CCC3CC4)ccc2-c2cccc(F)c21 [ASEM], the Ki (α4β2 nAChR) is listed as 4 µM and the Ki (α7-nAChR) is listed as 0.0003 µM.

For c1cnc2cc3c(cc2n1)[C@@H]1CNC[C@H]3C1 [Varenicline, varenicline], the “effect on neuronal firing rate” value (PSAM^4-GlyR [6]) is listed as “reduces neuronal firing rate”.

— publication PMC10803328 (Scientific Reports, 2024)
